From patent US5254576A, “Diphenyl-heterocyclic-oxazole as platelet aggregation inhibitors” (Bristol-Myers Squibb Company, priority 1992, dated 1993)
Values after ≈ are worked out from the molar mass of the structure shown.

Legend:
[1] = tested on: ADP-induced aggregation of human blood platelets; assay: cells; settings: Platelet, read-out: IC50 (human PRP vs ADP)
[2] = tested on: platelet aggregation; settings: prior art (U.S. Pat. No. 4,460,598; EPO 0434034); cited from earlier work
[3] = tested on: human PRP vs ADP; settings: U.S. Pat. No. 4,460,598; Lautenschlager, et al., Drugs of the Future, 11, 26 (1986); cited from earlier work

Compound | IC50 [1] [µg/mL] | inhibition of platelet aggregation, in words [2] | IC50 (human PRP vs ADP) [3] [µg/mL]
COC(=O)COc1cccc(-c2ocnc2-c2nc(-c3ccsc3)c(-c3ccsc3)o2)c1 [Compound 19] | 0.19 (≈ 0.409 µM) | – | –
COC(=O)COc1cccc(-c2ocnc2-c2nc(-c3ccccc3)c(-c3ccccc3)o2)c1 [Compound 6] | 0.012 (≈ 0.0265 µM) | – | –
COC(=O)COc1cccc(-c2ocnc2-c2nc(-c3ccccc3)c(-c3ccccc3)[nH]2)c1 [Compound 22] | 0.13 (≈ 0.288 µM) | – | –
c1ccc(-c2nc(-c3ncoc3-c3cccc(OCc4nnn[nH]4)c3)oc2-c2ccccc2)cc1 [Compound 12, 5-[3-[4-(4,5-Diphenyl-2-oxazolyl)-5-oxazolyl]-phenoxy]methyl-1H-tetrazole] | 0.06 (≈ 0.13 µM) | – | –
O=C(O)COc1cccc(-c2ocnc2-c2nc(-c3ccsc3)c(-c3ccsc3)o2)c1 [Compound 20] | 0.21 (≈ 0.466 µM) | – | –
O=C(O)COc1cccc(-c2ocnc2-c2nc(-c3ccccc3)c(-c3ccccc3)o2)c1 [Compound 5] | 0.012 (≈ 0.0274 µM) | – | –
O=C(O)COc1cccc(-c2ocnc2-c2nc(-c3ccccc3)c(-c3ccccc3)s2)c1 [Compound 32] | 0.096 (≈ 0.211 µM) | – | –
COC(=O)COc1cccc(-c2ocnc2-c2nnc(-c3ccccc3)n2-c2ccccc2)c1 [Compound 16, Methyl [3-[4-(4,5-diphenyl-4H-1,2,4-triazol-3-yl)-5-oxazolyl]phenoxy]acetate] | > 32 | – | –
O=C(O)COc1cccc(-c2ocnc2-c2nc(-c3ccccc3)c(-c3ccccc3)[nH]2)c1 [Compound 23] | 0.012 (≈ 0.0274 µM) | – | –
O=C(O)COc1cccc(-c2ocnc2-c2nnc(-c3ccccc3)n2-c2ccccc2)c1 [Compound 17] | > 32 | – | –
COCOc1cccc(-c2ocnc2-c2nc(-c3ccccc3)c(-c3ccccc3)o2)c1 [Compound 10] | 28 (≈ 66 µM) | – | –
COC(=O)COc1cccc(-c2ocnc2-c2nc(-c3ccccc3)c(-c3ccccc3)s2)c1 [Compound 31] | 0.26 (≈ 0.555 µM) | – | –
O=C(O)CCCCCCCOc1nc(-c2ccccc2)c(-c2ccccc2)n1-c1ccccc1 [Octimibate] | – | broad spectrum inhibitor of platelet aggregation | 1 (≈ 2.2 µM)
